These results are taken from publication PMC10507085, “Pharmacological inhibition of TBK1/IKKε blunts immunopathology in a murine model of SARS-CoV-2 infection” (Nature Communications, 2023).

What all share (assay): biochemical
Parameters in all cases: KINOMEscan competition binding, DNA-tagged kinase against immobilised ligand, qPCR read-out
Conditions in all cases: read-out: Percent Control
A general note: Real-time PCR tracks product formation cycle by cycle.

The target of experiment [1] is PRKG1 (Homo sapiens, UniProt Q13976).
Experiment [2] has as its target HIPK1 (Homo sapiens, UniProt Q86Z02).
Experiment [3] addresses GSK3A (Homo sapiens, UniProt P49840).
The target in experiment [4] is IRAK3 (Homo sapiens, UniProt Q9Y616).
Experiment [5] deals with ROS1 (Homo sapiens, UniProt P08922).
Experiment [6] concerns the target PRKCQ (Homo sapiens, UniProt Q04759).
The target of experiment [7] is PKN1 (Homo sapiens, UniProt Q16512).
Experiment [8] has as its target STK4 (Homo sapiens, UniProt Q13043).
Experiment [9] deals with CDK15 (Homo sapiens, UniProt Q96Q40).
Experiment [10] deals with TAOK3 (Homo sapiens, UniProt Q9H2K8).
For experiment [11], the target named is ACVRL1 (Homo sapiens, UniProt P37023).
Experiment [12] has as its target BMPR1B (Homo sapiens, UniProt O00238).
The target of experiment [13] is PTK6 (Homo sapiens, UniProt Q13882).
Experiment [14] deals with LCK (Homo sapiens, UniProt P06239).
Experiment [15] deals with CDK8 (Homo sapiens, UniProt P49336).
Experiment [16] concerns the target FRK (Homo sapiens, UniProt P42685).
Experiment [17] concerns the target MARK1 (Homo sapiens, UniProt Q9P0L2).
Experiment [18] addresses EPHB3 (Homo sapiens, UniProt P54753).
For experiment [19], the target named is MAPK6 (Homo sapiens, UniProt Q16659).
For experiment [20], the target named is TSSK3 (Homo sapiens, UniProt Q96PN8).
Sequence of TSSK3 (Q96PN8 whole entry): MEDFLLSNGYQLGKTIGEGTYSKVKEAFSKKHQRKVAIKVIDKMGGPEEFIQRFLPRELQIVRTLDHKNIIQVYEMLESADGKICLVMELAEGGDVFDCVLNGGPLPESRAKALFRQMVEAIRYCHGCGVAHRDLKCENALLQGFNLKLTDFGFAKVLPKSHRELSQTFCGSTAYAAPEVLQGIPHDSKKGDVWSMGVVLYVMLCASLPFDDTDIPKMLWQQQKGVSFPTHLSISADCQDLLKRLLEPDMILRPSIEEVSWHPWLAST

Sequence of PTK6 (Q13882 whole entry): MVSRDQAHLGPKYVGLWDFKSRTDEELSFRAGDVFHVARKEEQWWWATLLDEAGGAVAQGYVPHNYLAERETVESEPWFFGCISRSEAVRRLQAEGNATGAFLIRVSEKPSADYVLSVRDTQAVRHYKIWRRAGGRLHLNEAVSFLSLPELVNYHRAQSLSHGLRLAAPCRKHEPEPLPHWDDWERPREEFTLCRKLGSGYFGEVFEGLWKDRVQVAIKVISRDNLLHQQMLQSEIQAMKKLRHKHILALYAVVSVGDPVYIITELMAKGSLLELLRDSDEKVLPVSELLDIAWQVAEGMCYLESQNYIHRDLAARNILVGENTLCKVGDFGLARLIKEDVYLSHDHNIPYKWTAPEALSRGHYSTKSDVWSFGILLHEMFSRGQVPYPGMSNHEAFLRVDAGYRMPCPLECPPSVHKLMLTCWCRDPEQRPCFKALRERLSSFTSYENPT
Sequence of PRKCQ (Q04759 whole entry): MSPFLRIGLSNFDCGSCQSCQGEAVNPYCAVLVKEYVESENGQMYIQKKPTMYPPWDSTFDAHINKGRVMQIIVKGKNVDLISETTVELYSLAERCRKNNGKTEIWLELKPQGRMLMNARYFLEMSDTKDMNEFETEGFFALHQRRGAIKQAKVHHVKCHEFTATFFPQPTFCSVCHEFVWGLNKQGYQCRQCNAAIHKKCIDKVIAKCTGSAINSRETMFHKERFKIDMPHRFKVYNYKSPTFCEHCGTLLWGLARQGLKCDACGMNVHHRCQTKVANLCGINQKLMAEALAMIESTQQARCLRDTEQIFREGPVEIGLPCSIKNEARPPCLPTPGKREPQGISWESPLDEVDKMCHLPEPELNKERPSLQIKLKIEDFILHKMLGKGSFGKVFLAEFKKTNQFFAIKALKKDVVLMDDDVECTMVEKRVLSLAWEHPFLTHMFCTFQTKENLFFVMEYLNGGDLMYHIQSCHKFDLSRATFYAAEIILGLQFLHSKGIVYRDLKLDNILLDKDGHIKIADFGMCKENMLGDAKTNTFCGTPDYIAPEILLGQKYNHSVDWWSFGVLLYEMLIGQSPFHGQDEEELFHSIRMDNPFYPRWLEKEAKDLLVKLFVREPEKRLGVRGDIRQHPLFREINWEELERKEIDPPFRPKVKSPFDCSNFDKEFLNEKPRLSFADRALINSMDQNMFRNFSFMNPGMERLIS
Sequence of ROS1 (P08922 whole entry): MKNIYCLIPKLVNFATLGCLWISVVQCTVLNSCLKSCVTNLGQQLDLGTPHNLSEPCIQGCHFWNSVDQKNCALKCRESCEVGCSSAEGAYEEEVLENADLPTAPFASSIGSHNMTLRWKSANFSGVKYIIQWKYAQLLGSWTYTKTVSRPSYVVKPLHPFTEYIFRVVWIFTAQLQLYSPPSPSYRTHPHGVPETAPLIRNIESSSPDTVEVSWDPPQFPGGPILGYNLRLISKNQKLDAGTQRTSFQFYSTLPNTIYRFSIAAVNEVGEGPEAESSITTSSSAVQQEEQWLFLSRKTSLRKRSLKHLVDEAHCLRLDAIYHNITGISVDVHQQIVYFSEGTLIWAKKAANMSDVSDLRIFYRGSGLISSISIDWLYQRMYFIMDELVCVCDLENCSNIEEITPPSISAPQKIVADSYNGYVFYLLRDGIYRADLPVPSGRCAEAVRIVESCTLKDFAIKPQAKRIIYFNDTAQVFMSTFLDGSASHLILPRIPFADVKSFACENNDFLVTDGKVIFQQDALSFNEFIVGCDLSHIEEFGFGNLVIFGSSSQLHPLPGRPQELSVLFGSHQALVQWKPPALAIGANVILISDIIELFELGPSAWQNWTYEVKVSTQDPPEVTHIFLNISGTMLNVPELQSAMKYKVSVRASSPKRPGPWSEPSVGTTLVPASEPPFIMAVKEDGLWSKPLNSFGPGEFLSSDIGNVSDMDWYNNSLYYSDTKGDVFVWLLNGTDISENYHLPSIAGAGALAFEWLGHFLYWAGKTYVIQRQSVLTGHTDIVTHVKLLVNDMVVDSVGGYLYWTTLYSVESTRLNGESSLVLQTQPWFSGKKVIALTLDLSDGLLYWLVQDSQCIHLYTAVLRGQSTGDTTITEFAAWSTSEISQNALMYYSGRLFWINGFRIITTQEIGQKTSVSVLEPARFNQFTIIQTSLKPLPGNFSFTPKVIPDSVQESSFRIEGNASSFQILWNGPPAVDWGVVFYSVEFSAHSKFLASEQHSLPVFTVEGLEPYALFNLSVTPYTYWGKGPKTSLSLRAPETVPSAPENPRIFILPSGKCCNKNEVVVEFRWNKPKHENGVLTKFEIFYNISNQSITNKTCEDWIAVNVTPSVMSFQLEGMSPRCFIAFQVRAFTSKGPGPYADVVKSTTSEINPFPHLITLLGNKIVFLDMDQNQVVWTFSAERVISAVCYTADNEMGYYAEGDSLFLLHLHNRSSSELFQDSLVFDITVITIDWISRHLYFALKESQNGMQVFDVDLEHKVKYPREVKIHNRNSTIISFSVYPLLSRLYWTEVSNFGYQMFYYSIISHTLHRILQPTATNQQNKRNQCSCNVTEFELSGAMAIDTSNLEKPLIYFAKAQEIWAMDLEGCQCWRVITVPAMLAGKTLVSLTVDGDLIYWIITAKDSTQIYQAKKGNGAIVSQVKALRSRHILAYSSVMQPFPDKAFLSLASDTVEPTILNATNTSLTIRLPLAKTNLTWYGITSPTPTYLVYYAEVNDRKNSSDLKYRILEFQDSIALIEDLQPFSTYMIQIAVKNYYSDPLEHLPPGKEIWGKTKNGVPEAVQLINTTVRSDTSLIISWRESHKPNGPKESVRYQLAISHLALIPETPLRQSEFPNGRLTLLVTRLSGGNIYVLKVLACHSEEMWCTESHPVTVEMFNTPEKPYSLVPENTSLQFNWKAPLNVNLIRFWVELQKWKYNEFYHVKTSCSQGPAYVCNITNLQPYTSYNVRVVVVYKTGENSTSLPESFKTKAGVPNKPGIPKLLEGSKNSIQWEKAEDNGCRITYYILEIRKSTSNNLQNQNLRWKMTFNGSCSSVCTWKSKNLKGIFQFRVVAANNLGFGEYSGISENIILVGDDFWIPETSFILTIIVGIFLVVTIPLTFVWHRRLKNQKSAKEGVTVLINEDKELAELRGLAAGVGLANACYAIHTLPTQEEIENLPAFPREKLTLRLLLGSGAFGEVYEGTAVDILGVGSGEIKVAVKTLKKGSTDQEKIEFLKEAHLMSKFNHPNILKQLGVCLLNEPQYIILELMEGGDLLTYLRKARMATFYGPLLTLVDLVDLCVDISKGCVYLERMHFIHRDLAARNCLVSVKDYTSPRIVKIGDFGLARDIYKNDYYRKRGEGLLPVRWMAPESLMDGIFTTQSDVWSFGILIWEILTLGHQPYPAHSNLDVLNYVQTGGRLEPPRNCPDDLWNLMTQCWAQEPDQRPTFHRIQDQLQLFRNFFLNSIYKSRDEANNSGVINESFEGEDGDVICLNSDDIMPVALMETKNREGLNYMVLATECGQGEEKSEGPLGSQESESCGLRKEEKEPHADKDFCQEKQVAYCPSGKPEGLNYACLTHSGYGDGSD
Sequence of PRKG1 (Q13976 whole entry): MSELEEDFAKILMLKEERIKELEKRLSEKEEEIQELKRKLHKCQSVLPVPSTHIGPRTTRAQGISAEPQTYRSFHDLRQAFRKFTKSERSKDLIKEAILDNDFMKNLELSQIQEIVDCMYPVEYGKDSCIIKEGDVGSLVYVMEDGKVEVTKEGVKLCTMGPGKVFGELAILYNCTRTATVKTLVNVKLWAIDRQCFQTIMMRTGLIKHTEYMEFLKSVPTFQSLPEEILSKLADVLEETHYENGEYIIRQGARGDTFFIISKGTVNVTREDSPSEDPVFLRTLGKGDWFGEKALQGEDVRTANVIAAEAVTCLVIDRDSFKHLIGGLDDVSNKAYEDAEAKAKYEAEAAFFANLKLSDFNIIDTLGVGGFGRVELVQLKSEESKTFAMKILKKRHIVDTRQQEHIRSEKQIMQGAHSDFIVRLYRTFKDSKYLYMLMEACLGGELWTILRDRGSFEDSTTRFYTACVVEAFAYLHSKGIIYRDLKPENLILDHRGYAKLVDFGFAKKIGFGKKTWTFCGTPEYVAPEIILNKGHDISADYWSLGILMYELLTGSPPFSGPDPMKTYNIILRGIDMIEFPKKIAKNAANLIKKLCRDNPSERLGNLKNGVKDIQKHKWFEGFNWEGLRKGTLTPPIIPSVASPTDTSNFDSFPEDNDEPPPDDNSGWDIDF
Sequence of GSK3A (P49840 whole entry): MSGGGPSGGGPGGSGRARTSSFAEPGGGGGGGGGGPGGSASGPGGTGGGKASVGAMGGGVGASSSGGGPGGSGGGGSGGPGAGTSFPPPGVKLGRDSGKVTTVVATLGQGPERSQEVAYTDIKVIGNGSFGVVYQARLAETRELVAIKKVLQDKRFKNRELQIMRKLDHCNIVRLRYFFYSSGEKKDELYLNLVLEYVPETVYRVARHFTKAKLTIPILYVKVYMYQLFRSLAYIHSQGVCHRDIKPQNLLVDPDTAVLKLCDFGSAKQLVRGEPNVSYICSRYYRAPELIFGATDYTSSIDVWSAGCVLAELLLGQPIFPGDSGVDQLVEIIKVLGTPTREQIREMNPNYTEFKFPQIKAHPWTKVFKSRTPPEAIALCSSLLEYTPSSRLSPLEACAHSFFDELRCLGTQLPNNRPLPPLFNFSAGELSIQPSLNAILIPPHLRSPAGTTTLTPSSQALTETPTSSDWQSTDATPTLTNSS

For `Oc1ccc(C2=Cc3ccc(O)cc3OC2)cc1` [compound 1, idronoxil], the remaining binding at 10 µM in experiment [1] turned out to be 74%; in [2] it was 65%; in experiment [3], 74%; in experiment [4], 77%; in [5], 73%; in [6] it was 73%. Besides, the remaining binding at 10 µM came out at 66% in [7]; 97% in experiment [8]; 99% in experiment [9]; 53% in experiment [10]; 92% in [11]; 66% in experiment [12]. Also, the remaining binding at 10 µM in experiment [13] was 100%; in experiment [14] it was 60%; in experiment [15] it was 58%; in [16] it was 78%; in experiment [17] it was 91%; in experiment [18] it was 95%. The remaining binding at 10 µM in experiment [19] came out at 96%; in experiment [20], 59%.
